# Source: paper PMC7601231 (Polymers, 2020)
# Tests used:
# [1] = Pharmacokinetic study in rats after injection; format: in vivo, Sprague–Dawley rats; conditions: 10 mg/kg, n = 12
# Procedure: Blood samples (0.5 mL) were taken from the retinal vein of the rats using a capillary and at the following time points after injecting: 5, 10, 15, 30 min, 1, 2, 4, 6, 8, 10 and 12 h. The sample should be transferred to the heparin sodium tube for anticoagulation. The samples were centrifuged at 4000 rpm for 10 min. The resultant plasma was poured into 2-mL cryogenic plastic tubes and stored in a freezer (at […]) until assayed. A week later, the two groups of animals exchanged the drug and obtained plasma samples, which were stored in the −20-degree refrigerator for analysis. The sample was extracted in the following steps: the plasma ([…]) was mixed with […] of paclitaxel solution (4.0 mg/mL) as […], and 1.0 mL methyl tert-butyl ether in a 2-mL plastic centrifuge tube, centrifuged at 10,000 rpm for 5 min to precipitate the proteins and the supernatant layer (0.8 mL) was blown dry by N2 and is dissolved by 0.1 mL methanol, which was centrifuged at 10,000 rpm for 10 min. The supernatant layer ([…]) was analyzed by LC-MS (Waters, American).
# The plasma concentration versus time curves of the two preparations were plotted. The pharmacokinetic parameters such as elimination rate (Ke) and elimination half-life (T1/2) were calculated by using DAS2.0 software. The maximum peak concentration (Cmax) and the corresponding sampling time (Tmax) were obtained from the curves directly. The areas under the plasma concentration–time curve from time zero to time t (AUC0–t) and from time zero to infinity (AUC0-∞) were calculated by the method of moments. Statistical comparisons were made by using a ANOVA test and p value smaller than 0.05 was considered statistically significant.
# [2] = Vascular stimulation test, ear vein injection; format: in vivo, New Zealand white rabbits; conditions: rabbit ear vein, 0.7 mg/kg, every day, three injections
# Procedure: Preparations were administered every day for a total of three injections. At designed time points, rabbits were anesthetized and ear tissue was soaked with 10% formalin. Then the histopathologic examination was conducted.
# [3] = Biodistribution study in rats; format: in vivo; conditions: 10 mg/kg, 10, 60 and 360 min after administration
# [4] = Phase-solubility studies of DTX in SBE-β-CD aqueous solution; format: physicochemical; conditions: 25 °C
# Procedure: In this study, the stability constant was assessed by classic determination method using solubility diagrams that required calculations involving drug solubility. […] Then the resulting suspensions were shaken in a thermostatic air-bath shaker at 25 °C for 48 h until equilibrium was achieved. After that, the saturated supernatant fluid was centrifuged for 5 min under 5000 rpm, and then the top fluid was withdrawn and filtered through a 0.45-μm filter. The filtrate was diluted appropriately with deionized water and analyzed by HPLC as reported above.
compound,measurement,setting,value
"CC(=O)O[C@@]12CO[C@@H]1C[C@H](O)[C@@]1(C)C(=O)[C@H](O)C3=C(C)[C@@H](OC(=O)[C@H](O)[C@@H](NC(=O)OC(C)(C)C)c4ccccc4)C[C@@](O)([C@@H](OC(=O)c4ccccc4)[C@H]21)C3(C)C [DTX, Docetaxel]",AUC(0-t),[1],881.4 ± 30.4 ng/mL ∗ h
same,AUC(0-∞),[1],925.8 ± 35.2 ng/mL ∗ h
same,Cmax,"[1]; male, Sprague-Dawley, rat, plasma, other: injection",1100 ± 98 ng/mL
same,vascular stimulation: reaction at the injection site (histopathology),[2],serious vascular inflammation and surrounding tissue lesions
same,"concentration of DTX in brain, fat and testis",[3],low
same,increase of water solubility of DTX over its original values,[4],about 800 times
